Source: patent publication US20140088314A1, “BIFUNCTIONAL CHELATING AGENTS” (GENERAL ELECTRIC COMPANY, priority 2012, published 2014)

How the values were obtained:
mammary MATBIII tumor = assay: Dynamic contrast enhanced (DCE) MR tumor imaging; assay type: in vivo, SCID mice; details: dose 0.2 mmol/kg Gd, Fe, mammary MBIII rodent tumor model
Protocol: Cell Preparation: MATBIII breast cells (available from ATCC®) were trypsinized using 1×trypsin-EDTA. The cells were washed using 1× phosphate buffered saline (PBS) and aliquots of 2×10^6 cells were made in 1×PBS (100 uL). Prior to injection into the subject, 50 μL of basement membrane matrix (Matrigel®, BD Biosciences) was added to each aliquot.
Tumor Induction: All procedures involving animals were completed under protocols approved by the GE Global Research Institutional Animal Care and Use Committee. Female, 5-7 weeks old, SCID mice (Charles River Laboratories) were briefly anesthetized with 2% isoflurane and injected with 1×10^6 MATBIII breast cancer cells in 1×PBS (100 μL) and Matrigel SC to their left flank. The animals were monitored for 7 days post tumor cell injections at which point, precontrast agent MR images of the resulting lesions, typically 1 cm in diameter, were collected using the sequences described below.

[1] = Hydrodynamic size assay (dynamic light scattering); assay type: physicochemical; details: size printed beside agent name in Table 8
Protocol: The dilution was carried out to yield approximately 20,000 counts per second during the DLS measurement and the sample was allowed to equilibrate for 10 minutes in the instrument prior to data collection.

Agent size [1]: Magnevist - Gd (1 nm)
Compound: CNC[C@H](O)[C@@H](O)[C@H](O)[C@H](O)CO.CNC[C@H](O)[C@@H](O)[C@H](O)[C@H](O)CO.O=C([O-])CN(CCN(CC(=O)[O-])CC(=O)O)CCN(CC(=O)[O-])CC(=O)O.[Gd+3] [Magnevist - Gd]
Tumor-to-muscle signal enhancement ratio, Tumor: Muscle, Average (mammary MATBIII tumor): 3.6
